Measurements as given in patent publication US6815664B2, “Method for separation of particles” (Genoptix, Inc., priority 2001, dated 2004).

Tests used:
U937 cells = assay: Escape velocity of treated and untreated leukemia cells; format: cell-based; settings: PMA 5 ug/mL, 37° C., treated for 6 hours
Excerpt: Separation By Refractive Index—Polystyrene, polymethylmethacrylate and silica particles of similar size (˜5 micrometer diameter, Bangs Labs) and refractive indexes of 1.59, 1.49 and 1.37, respectively, were sorted by moving optical gradient fields. Observed escape velocities for polystyrene, PMMA and silica were 44, 47 and 32 micrometers/second, respectively. Briefly, a particle is aligned in the fringe and the fringes are moved at increasing speed until the particle slips. […] It will be appreciated by those skilled in the art that the absolute value of the escape velocity will differ depending upon system conditions, e.g., laser power. The numerical results provided herein are meant to provide measured data for the system actually used, and are not to be considered a limitation on the values which might exist in a different system.
PMA was dissolved in ethanol at a concentration of 5 mg/mL. 3 mls of U937 cells grown in RPMI 1640 media with supplements were removed from the culture flask and 1 ml was placed into each of three eppendorf tubes. Cells from the first tube were pelleted for 4 minutes at 10,000 rpm and resuspended in 250 uL PBS/1% BSA buffer for escape velocity measurements. PMA was added to the remaining two tubes of U937 cells to a final concentration of 5 ug/mL. These tubes were vortexed and placed in a 37° C. water bath for either one hour or six hours. […]

K562 Cells = assay: Escape velocity of cells in a moving optical gradient field (1064 system, CYTOP coated coverslips); format: cell-based; settings: K562 cells (chronic myelogenous leukemia, lymphoblast), 26 Hr. Taxol treatment; untreated K562 10.0 +/− 0.7
Excerpt: Certain of the data reported herein were generated with the following setup. Optical gradient fields were generated using a Michelson interferometer and either a 150 mW, 812 nm laser (812 system) or a 2.5 W, 1064 nm laser (1064 system). The 812 system used a 100× (1.25 NA) oil immersion lens to focus the fringe pattern and to visualize the sample. The 1064 system used a 20× objective to focus the fringes and a 60× objective to visualize the sample. In general the sample cell was a coated microscope slide and/or coverslip that was sealed with Vaseline. Coverslip spacers controlled the height of the cell at approximately 150 micrometers
Separation By Refractive Index—Polystyrene, polymethylmethacrylate and silica particles of similar size (˜5 micrometer diameter, Bangs Labs) and refractive indexes of 1.59, 1.49 and 1.37, respectively, were sorted by moving optical gradient fields. Observed escape velocities for polystyrene, PMMA and silica were 44, 47 and 32 micrometers/second, respectively. […] The numerical results provided herein are meant to provide measured data for the system actually used, and are not to be considered a limitation on the values which might exist in a different system.
Escape velocities were measured using a gradient field generated by the 1064 system on CYTOP coated coverslips.

| Compound | escape velocity as compared to the untreated cells (U937 cells) | Escape Velocity (K562 Cells) |
| --- | --- | --- |
| CCCCCCCCCCCCCC(=O)O[C@@H]1[C@@H](C)[C@@]2(O)[C@@H](C=C(CO)C[C@]3(O)C(=O)C(C)=C[C@@H]23)[C@@H]2C(C)(C)[C@]12OC(C)=O [PMA] | significantly higher escape velocity |  |
| CC(=O)O[C@H]1C(=O)[C@@]2(C)[C@H]([C@H](OC(=O)c3ccccc3)[C@]3(O)C[C@H](OC(=O)[C@H](O)[C@@H](NC(=O)c4ccccc4)c4ccccc4)C(C)=C1C3(C)C)[C@]1(OC(C)=O)CO[C@@H]1C[C@@H]2O [Taxol] |  | 8.2 +/− 0.4 um/sec. |
